Laboratory results published in patent US6693132B2, “Methods for using alkanoyloxymethyl esters” (Beacon Laboratories, Inc., priority 2000, dated 2004).

Assays:
[1] = test system: PC-3 prostate cancer cells; experiment: EDR anti-proliferation assay (3H-thymidine incorporation, soft agar) against PC-3 prostate cancer cells; format: cell-based; conditions: Homo sapiens; PC-3 cells in soft agar, five days incubation, 3H-TdR incorporation
Excerpt: The PC-3 cell line was maintained in RPMI supplemented with 10% fetal calf serum and antibiotics. […] Cells were suspended in 0.12% soft agar in complete medium and plated (2,000 cells per well, as determined by preliminary experiments) in different drug concentrations onto a 0.4% agarose underlayer in 24-well plates. Plating cells on agarose underlayers supports the proliferation only of the transformed cells, ensuring that the growth signal stems from the malignant component of the tumor.
All compounds were dissolved in DMSO to 200× stock solutions. Stock solutions were diluted to 20× working solutions using the tissue culture medium, serially diluted and added to the 24-well plates. […] No significant changes in pH of the culture medium were observed under the above conditions. Diluent control wells contained PC3 cells treated with DMSO, at the dilutions used for appropriate drug treatment. All experimental points were represented by two separate wells (duplicates). Positive controls were determined using at least two wells treated with an extremely high dose of cisplatin, an anti-cancer agent. Four wells containing tumor cells that were not treated with drugs served as negative controls in each experiment.
Cells were incubated with drugs under standard culture conditions for five days. Cultures were pulsed with tritiated thymidine (^3H-TdR, New Life Science Products, Boston, Mass.) at 5 μCi per well for the last 48 hours of the culture period. Cell culture plates were then heated to 90° C. to liquefy the agarose, and cells were harvested onto glass fiber filters, which were then placed into counting vials containing liquid scintillation fluid. The radioactivity trapped on the filters was counted with a Beckman scintillation counter. The fraction of surviving cells was determined by comparing ^3H-TdR incorporation in treated (experimental points) and untreated (negative control) wells. […] IC50 values were determined using the approximated sigmoidal curves and expressed as μM.

[2] = target: histone deacetylase isolated from rat liver; experiment: Histone deacetylase inhibition assay with fluorescent substrate MAL, HPLC determination; format: biochemical; conditions: 37° C. 90 minutes, IC50 from five dilutions, read-out: HDAC
Description: The inhibition of histone deacetylase was determined according to methods generally described by Hoffmann et al., Nucleic Acids Res. 27:2057-8 (1999). The histone deacetylase was isolated from rat liver as previously described by M. Tung. The compounds tested were initially dissolved in either ethanol or in DMSO to provide working stock solutions.
The assay was performed in a final volume of 120 μL total, consisting of 100 μL of 15 μM tris-HCl buffer (pH 7.9) also containing 0.25 μM EDTA, 10 μM NaCl, 10% glycerol, 10 μM mercaptoethanol and the enzyme. The assay was initiated upon the addition of 10 ml of one of the compounds being tested, followed by the addition of the fluorescence-labeled lysine substrate to each assay tube in an ice bath for 15 minutes. The tubes were transferred to a water bath at 37° C. for an additional 90 minutes.
The fluorescent substrate described by Hoffmann was modified to increase the precision and accuracy by the addition of an internal standard for the HPLC determination. The synthetic substrate, MAL is N-(4-methyl-7-coumarinyl)-N-α(tert-butyloxy-carbonyl)-N-Ω-acetyllysineamide.
An initial assay was performed to determine the range of activity of each compound. […] All values are the result of two or more experiments.

IC50 [1] [µM]	IC50 [2] [µM]	SMILES
30	590	CCC(=O)OCOC(=O)CC [POMP, propionoyloxymethyl propionate]
> 2000	4500	CCCC(=O)O [butyric acid]
0.005	–	CC(/C=C/C(=O)NO)=C\[C@@H](C)C(=O)c1ccc(N(C)C)cc1 [trichostatin]
